Source: patent US8383637B2, “2-amino-quinazoline derivatives useful as inhibitors of β-secretase (BACE)” (Jansssen Pharmaceutica N.V., priority 2004, dated 2013)
“And” between values parts separate entries of the source, which are not always exact repeats. Equal values may be shown once. Read-outs that look alike come from different tables or passages of the source.

Tests used:
β-secretase(BACE) [1] = molecular target: T1, β-secretase(BACE) (Homo sapiens, UniProt P56817); experiment: BACE FS1% Inhibition Assay; assay type: biochemical; conditions: FS1 substrate
T1 construct: purchased Panvera
T1 sequence (P56817 46-501): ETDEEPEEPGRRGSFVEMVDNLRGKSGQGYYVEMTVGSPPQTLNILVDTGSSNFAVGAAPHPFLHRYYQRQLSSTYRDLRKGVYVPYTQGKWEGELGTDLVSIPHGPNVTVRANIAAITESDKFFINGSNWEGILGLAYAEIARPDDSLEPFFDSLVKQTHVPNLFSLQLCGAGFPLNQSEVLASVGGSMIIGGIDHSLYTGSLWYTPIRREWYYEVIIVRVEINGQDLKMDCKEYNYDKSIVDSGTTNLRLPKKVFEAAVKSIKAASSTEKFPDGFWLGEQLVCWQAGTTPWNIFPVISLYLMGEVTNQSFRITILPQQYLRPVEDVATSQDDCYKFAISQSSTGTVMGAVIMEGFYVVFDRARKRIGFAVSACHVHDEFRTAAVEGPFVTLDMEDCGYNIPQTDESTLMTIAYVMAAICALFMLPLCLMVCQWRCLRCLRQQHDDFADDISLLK
Method in brief: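 Percent inhibition at each tested concentration, referenced to enzyme-free blank and vehicle-only positive control. Reaction: compound and BACE (4 μg/mL working stock) mixed 20 min at room temperature before FS1 substrate (300 μg/mL working stock), then 1 h at room temperature.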

β-secretase(BACE) [2] = molecular target: T1, β-secretase(BACE); experiment: BACE Assay-2 (FS1 substrate, IC50 and Ki); assay type: biochemical; conditions: procedure of Example 159, FS1 substrate; read-out: Ki μM (159)
Method: The FS1-substrate stock solution was prepared in DMSO as a 10 mg/mL solution. The FS1-substrate working solution was prepared by diluting the 10 mg/mL stock solution with substrate assay buffer to a final concentration of 300 μg/mL. The β-secretase (BACE) working solution was prepared by diluting a 0.83 mg/mL BACE stock solution with enzyme assay buffer to a final concentration of 4 μg/mL.
Test compounds were dissolved in DMSO at 10 mM.
The procedure for this assay was as follows: 15 μL of BACE working solution was pipetted into each well of a 96-well plate. To each well was then pipetted 2 μL of test compound at the selected concentration. Test compound and BACE were then mixed with a pipettor and incubated for 20 min at room temperature. To each well was then added 10 μL of the FS1 substrate working solution.
The procedure for the positive control was as follows: 15 μL of BACE working solution was pipetted into each well to be used as a positive control. To each well was then pipetted 2 μL of vehicle. Vehicle and BACE were then mixed with a pipettor and incubated for 20 min at room temperature. To each well was then added 10 μL of the FS1 substrate working solution.
For test compounds, measured at multiple concentrations, the measured T0 and T60 values were used to calculate an IC50 value using Graphpad Software (or PIR). For test compounds, Ki inhibition was determined as follows: For each compound concentration and positive control, rate of cleavage of substrate (Vi, where i=compound concentration in μM) was determined as Δ Fluorescence/Δ time (min). Cleavage rates (Vi) were plotted as a function of inhibitor concentration in μM [I]. The Ki was then determined by fitting the following equation to the graph of [I] vs Vi Y=aVmax/(50+24*(1+X/Ki)),

[3] = 0.3 μM test compound, read-out: % Inhibition (FS)
[4] = 1 μM test compound, read-out: % Inhibition (FS)
[5] = 3 μM test compound, read-out: % Inhibition (FS)
[6] = 0.3 μM test compound, read-out: % Inhibition (FS) 0.3 μM
[7] = 1 μM test compound, read-out: % Inhibition (FS) 1 μM
[8] = 3 μM test compound, read-out: % Inhibition (FS) 3 μM

inhibition at 0.3 µM (β-secretase(BACE) [1]; [3]) [%] | inhibition at 1 µM (β-secretase(BACE) [1]; [4]) [%] | inhibition at 3 µM (β-secretase(BACE) [1]; [5]) [%] | Ki (β-secretase(BACE) [2]) [µM] | inhibition at 0.3 µM (β-secretase(BACE) [1]; [6]) [%] | inhibition at 1 µM (β-secretase(BACE) [1]; [7]) [%] | inhibition at 3 µM (β-secretase(BACE) [1]; [8]) [%] | % Inhibition (FS) 0.3 μM (β-secretase(BACE) [1]; 0.3 μM test compound) [%] | % Inhibition (FS) 1 μM (β-secretase(BACE) [1]; 1 μM test compound, 1 µM) | % Inhibition (FS) 3 μM (β-secretase(BACE) [1]; 3 μM test compound, 3 µM) [%] | SMILES
56 | 114 | 132 | 0.087 | – | – | – | – | – | – | CN(C(=O)CC[C@@H]([C@H]1CC[C@@H](O)CC1)N1Cc2cc(Oc3ccccc3)ccc2N=C1N)C1CCCCC1 [Compound 731, 4-(2-Amino-6-phenoxy-4H-quinazolin-3-yl)-N-cyclohexyl-4-(cis-4-hydroxy-cyclohexyl)-N-methyl-butyramide]
135 | 135 | 133 | 0.01 | – | – | – | – | – | – | CN(C(=O)CC[C@@H](C1CCC(=O)CC1)N1Cc2cc(Oc3ccccc3)ccc2N=C1N)C1CCCCC1 [Compound 732, (S)-enantiomer of 4-(2-Amino-6-phenoxy-4H-quinazolin-3-yl)-N-cyclohexyl-N-methyl-4-(4-oxo-cyclohexyl)-butyramide]
17 | 63 | 101 | 0.168 | – | – | – | – | – | – | CCOC(=O)C1CCC(N(C)C(=O)CCC(C2CCOCC2)N2Cc3cc(Oc4ccccc4)ccc3N=C2N)CC1 (centres unmarked) [Compound 742]
– | – | – | 0.14 | 55 | 77 | 118 | – | – | – | COc1cccc(F)c1-c1ccc2c(c1)CN(CCNC(=O)C1CCCCC1)C(N)=N2 [Compound 545]
– | – | – | 0.69 | < 30 | < 30 | 68 | – | – | – | CC(C)CN(CC(C)C)C(=O)c1cccc(CN2Cc3cc(Oc4ccccc4)ccc3N=C2N)c1 [Compound 211]
41 | 95 | 117 | 0.107 | – | – | – | – | – | – | CN(C(=O)CCC(C1CCCCC1)N1Cc2cc(Oc3ccccc3)ccc2N=C1N)C1CCCC(C(=O)O)C1 (centres unmarked) [Compound 776]
33 | 74 | 126 | 0.45 | – | – | – | – | – | – | CN(CCC#N)C(=O)CC[C@@H](C1CCCCC1)N1Cc2cc(-c3ccccc3F)ccc2N=C1N [Compound 725]
115 | 114 | 116 | 0.005 | – | – | – | – | – | – | NC1=Nc2ccc(Oc3ccccc3)cc2CN1[C@@H](CCC(=O)N(CCO)[C@H]1CC[C@@H](C(=O)O)CC1)C1CCOCC1 [Compound 750, (S)-Enantiomer of 4-cis-[[4-(2-Amino-6-phenoxy-4H-quinazolin-3-yl)-4-(tetrahydro-pyran-4-yl)-butyryl]-(2-hydroxy-ethyl)-amino]-cyclohexanecarboxylic acid]
– | – | – | 0.86 | < 30 | 41 | 84 | – | – | – | CN(C(=O)c1cccc(CN2Cc3cc(Nc4ccccc4)ccc3N=C2N)c1)C1CCCCC1 [Compound 432]
– | – | – | 0.58 | < 30 | < 30 | 30 | – | – | – | CC(C)[C@@H](CCC(=O)N(C)C1CCCCC1)N1Cc2cc(Oc3ccccc3)ccc2N=C1N [Compound 444]
– | – | – | 1.1 | < 30 | 44 | 81 | – | – | – | Cc1ccccc1Oc1ccc2c(c1)CN(Cc1cccc(C(=O)N(C)C3CCCCC3)c1)C(N)=N2 [Compound 293]
– | – | – | 0.81 | < 30 | – | 60 | <30 | <30% and 53% | 79 | CN(C(=O)c1cccc(CN2Cc3cc(-c4ccccc4S(=O)(=O)NC(C)(C)C)ccc3N=C2N)c1)C1CCCCC1 [Compound 158]
74 | 102 | 113 | 0.111 | – | – | – | – | – | – | COC(=O)[C@H]1CC[C@@H](N(CCO)C(=O)CC[C@@H](C2CCCCC2)N2Cc3cc(Oc4ccccc4)ccc3N=C2N)CC1 [Compound 762]
– | – | – | 0.56 | < 30 | 80 | 102 | – | – | – | CN(C(=O)CCCN1Cc2cc(Oc3ccccc3)ccc2N=C1N)C1CCCCC1 [Compound 177]
– | – | – | 0.13 | 41 | 66 | 110 | – | – | – | NC1=Nc2ccc(-c3ccccc3)cc2CN1CCNC(=O)C1CCCCC1 [Compound 515]
99 | 104 | 105 | 0.005 | – | – | – | – | – | – | CN(C(=O)CC[C@@H](C1CCCCC1)N1Cc2cc(Oc3ccccc3)ccc2N=C1N)[C@H]1CC[C@@H](C(=O)O)CC1 [Compound 739, (S)-enantiomer of 4-cis-{[4-(2-Amino-6-phenoxy-4H-quinazolin-3-yl)-4-cyclohexyl-butyryl]-methyl-amino}-cyclohexanecarboxylic acid]
– | – | – | 0.014 | 104 | 115 | 119 | – | – | – | NC1=Nc2ccc(-c3ccccc3F)cc2CN1CCC(=O)NC1C2CC3CC(C2)CC1C3 (centres unmarked) [Compound 635]
– | – | – | 0.15 | 31 | 74 | 113 | – | – | – | CN(C(=O)c1ccnc(CN2Cc3cc(Oc4ccccc4)ccc3N=C2N)c1)C1CCCCC1 [Compound 508, 2-(2-Amino-6-phenoxy-4H-quinazolin-3-ylmethyl)-N-cyclohexyl-N-methyl-isonicotinamide]
– | – | – | 0.068 | 74 | 103 | 118 | – | – | – | CN(C(=O)c1cccc(CN2Cc3cc(-c4ccccc4F)ccc3N=C2N)c1)C1CCCCC1 [Compound 334]
– | – | – | 0.044 | 103 | 118 | 126 | – | – | – | COc1ccccc1-c1ccc2c(c1)CN(CCC(=O)NC1C3CC4CC(C3)CC1C4)C(N)=N2 (centres unmarked) [Compound 556]
– | – | – | 0.16 | 39 | 75 | 105 | – | – | – | Cc1cccc(-c2ccc3c(c2)CN(CCNC(=O)C2CCCCC2)C(N)=N3)c1 [Compound 627]
– | – | – | 0.016 | 114 | 118 | 125 | – | – | – | CC(C)[C@H](CNC(=O)C1CCCCC1)N1Cc2cc(Oc3ccccc3)ccc2N=C1N [Compound 561]
– | – | – | 1 | < 30 | 49 | 83 | – | – | – | COc1cccc(Oc2ccc3c(c2)CN(Cc2cccc(C(=O)N(C)C4CCCCC4)c2)C(N)=N3)c1 [Compound 292]
– | – | – | 0.16 | 42 | 92 | 115 | – | – | – | CN(C(=O)CC[C@@H](CO)N1Cc2cc(Oc3ccccc3)ccc2N=C1N)C1CCCCC1 [Compound 558, (S)-enantiomer of 4-(2-Amino-6-phenoxy-4H-quinazolin-3-yl)-5-hydroxy-pentanoic acid cyclohexyl-methyl-amide]
104 | 107 | 113 | 0.015 | – | – | – | – | – | – | NC1=Nc2ccc(Oc3ccccc3)cc2CN1[C@@H](CCC(=O)N[C@@H](COCc1ccccc1)C(=O)O)C1CCOCC1 [Compound 782]
– | – | – | 0.2 | 66 | 97 | 111 | – | – | – | Cc1cccc(-c2ccc3c(c2)CN(Cc2cccc(C(=O)N(C)C4CCCCC4)c2)C(N)=N3)c1 [Compound 176]
– | – | – | 0.02 | 101 | 119 | 127 | – | – | – | CC(C)CC(=O)NC[C@@H](C(C)C)N1Cc2cc(Oc3ccccc3)ccc2N=C1N [Compound 563]
– | – | – | 0.1 | 34 | 85 | 113 | – | – | – | CC1CCCCC1NC(=O)CCN1Cc2cc(Oc3ccccc3)ccc2N=C1N (centres unmarked) [Compound 511]
– | – | – | 0.78 | 26 | 63 | 92 | – | – | – | COc1cccc(OC)c1-c1ccc2c(c1)CN(Cc1cccc(C(=O)N(C)C3CCCCC3)c1)C(N)=N2 [Compound 264]
93 | 109 | 114 | 0.054 | – | – | – | – | – | – | CN(C(=O)CC[C@@H](C1CCC2(CC1)OCCO2)N1Cc2cc(Oc3ccccc3)ccc2N=C1N)C1CCCCC1 [Compound 730, S-enantiomer of 4-(2-Amino-6-phenoxy-4H-quinazolin-3-yl)-N-cyclohexyl-4-(1,4-dioxa-spiro[4.5]dec-8-yl)-N-methyl-butyramide]
